According to patent US7312356B2, “Medicament” (Cyclacel Limited, priority 2001, dated 2007):

CC(=O)OC[C@@]1(C(=O)O)CC[C@]2(C)C(CCC3[C@@]4(C)CC[C@H](OC(C)=O)C(C)(C)C4CC[C@]32C)C1=O (stereo partly drawn) [(7), 3β,28-Diacetoxy-18-oxo-19,20,21,29,30-pentanorlupan-22-oic Acid]
melting point: 142 to 144 °C
